Test results reported in PMC9202019 (ACS Omega, 2022).
Several values for one entry are separate records, joined by “and”; a condition that tells them apart may be missing. Equal entries are not always repeated. Where two headings read alike, the source gives them in different places. Values belong to the compound of their own block, whether it stands above or below them.

How the values were obtained:
[1] = humans; cited from earlier work
[2] = Pharmacokinetics of caffeine alone and with pinocembrin in rats; assay type: in vivo; conditions: male, Wistar, rat, plasma, po, 15 mg/kg
[3] = system: CYP1A2; conditions: cited from earlier work
[4] = target: T1, CYP1A2 (Homo sapiens, UniProt P05177); conditions: cited from earlier work
T1 sequence (P05177 1-516): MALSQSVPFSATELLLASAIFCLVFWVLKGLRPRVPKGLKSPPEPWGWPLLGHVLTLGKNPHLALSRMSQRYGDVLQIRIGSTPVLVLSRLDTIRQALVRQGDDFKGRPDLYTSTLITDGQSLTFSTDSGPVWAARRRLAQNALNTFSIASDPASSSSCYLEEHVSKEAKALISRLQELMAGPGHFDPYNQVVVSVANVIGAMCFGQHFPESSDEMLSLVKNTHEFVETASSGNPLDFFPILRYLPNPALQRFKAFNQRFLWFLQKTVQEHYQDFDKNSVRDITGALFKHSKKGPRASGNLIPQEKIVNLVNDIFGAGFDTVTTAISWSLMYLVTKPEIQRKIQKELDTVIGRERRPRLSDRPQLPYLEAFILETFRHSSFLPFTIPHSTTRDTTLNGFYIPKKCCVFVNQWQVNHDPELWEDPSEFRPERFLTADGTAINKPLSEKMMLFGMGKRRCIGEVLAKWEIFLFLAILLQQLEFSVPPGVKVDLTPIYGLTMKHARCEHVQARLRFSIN

[5] = Stability of pinocembrin in HLM; assay type: in vitro ADME, human; conditions: pinocembrin 5 μM, HLM 0.3 mg/mL, 0-30 min, 37 °C
[6] = Stability of pinocembrin in RLM; assay type: in vitro ADME, rat; conditions: protocol as for HLM
[7] = target: T2, CYP1A2 (Rattus norvegicus, UniProt P04799); test: CYP1A2-catalyzed phenacetin O-deethylation in RLM; assay type: in vitro ADME
T2 sequence (P04799 1-513): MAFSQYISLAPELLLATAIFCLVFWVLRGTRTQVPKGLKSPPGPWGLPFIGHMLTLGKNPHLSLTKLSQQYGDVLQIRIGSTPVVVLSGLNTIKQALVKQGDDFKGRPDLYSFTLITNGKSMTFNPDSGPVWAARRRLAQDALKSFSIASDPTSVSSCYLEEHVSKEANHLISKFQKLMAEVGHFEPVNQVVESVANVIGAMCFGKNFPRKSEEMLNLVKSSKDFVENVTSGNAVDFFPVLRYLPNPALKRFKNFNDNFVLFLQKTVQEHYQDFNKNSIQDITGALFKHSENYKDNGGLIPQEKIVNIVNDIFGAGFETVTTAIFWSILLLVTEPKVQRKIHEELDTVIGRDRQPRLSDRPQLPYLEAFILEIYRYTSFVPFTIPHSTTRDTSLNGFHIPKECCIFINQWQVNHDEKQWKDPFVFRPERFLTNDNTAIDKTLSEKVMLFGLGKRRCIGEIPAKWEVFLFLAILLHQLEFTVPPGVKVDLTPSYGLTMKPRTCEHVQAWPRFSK

[8] = Liver distribution of pinocembrin after intravenous dosing in rats; assay type: in vivo; conditions: male, Wistar, rat, 10 mg/kg
[9] = system: CYP2C9; conditions: read-out: IC50 for CYP2C9 inhibition; cited from earlier work
[10] = system: CYP2C19; conditions: read-out: IC50 for CYP2C19 inhibition; cited from earlier work
[11] = system: CYP3A4; conditions: read-out: IC50 for CYP3A4 inhibition; cited from earlier work
[12] = target: T1, CYP1A2; conditions: read-out: IC50 for CYP1A2-mediated phenacetin O-deethylation in HLM; cited from earlier work
[13] = humans; cited from earlier work; remark: listed apart in the source
[14] = target: T1, CYP1A2; conditions: HLM; cited from earlier work
[15] = target: T1, CYP1A2; conditions: HLM 0.3 mg/mL, phenacetin 1–1500 μM, 30 min
[16] = assay type: in vivo, Wistar rats; conditions: male, Wistar, rat, plasma, po, 4 mg/kg; for AUC(0-t): AUC0–t, tacrine 4 mg/kg oral alone (group III); for half-life: T1/2, tacrine 4 mg/kg oral alone (group III)
[17] = target: T2, CYP1A2; conditions: read-out: IC50 for CYP1A2 in RLM; cited from earlier work

AUC(0-t) ([2]; AUC0–t, caffeine 15 mg/kg oral alone (group I)): 2840 ± 141 ng·h/mL
half-life ([2]; T1/2, caffeine 15 mg/kg oral alone (group I)): 1.1 ± 0.1 h
Compound: Cn1c(=O)c2c(ncn2C)n(C)c1=O [caffeine]
portion of the drug metabolized by CYP1A2 [3]: > 95%

Stability of pinocembrin in HLM (amount remaining vs 0 min) [5]: stable
Stability of pinocembrin in RLM (amount remaining vs 0 min) [6]: stable
IC50 [7]: 3.11 ± 0.09 µM
Kp ([8]; liver and plasma): 1.8 to 3.8
concentration at 5 min ([8]; liver): 3680 ng/g
concentration at 15 min ([8]; liver): 2380 ng/g
concentration at 5 min ([8]; plasma): 2030 ng/mL and 7.9 µM
concentration at 15 min ([8]; plasma): 621 ng/mL
Compound: O=C1C[C@@H](c2ccccc2)Oc2cc(O)cc(O)c21 [pinocembrin]
IC50 [9]: 13 µM
IC50 [10]: 22 µM
IC50 [11]: 28 µM

maximum velocity of the uninhibited reaction (Vmax) for CYP1A2-catalyzed phenacetin O-deethylation [15]: 1584 ± 12 pmol/min/mg of protein
Compound: CCOc1ccc(NC(C)=O)cc1 [phenacetin]

AUC(0-t) [16]: 907 ± 129 ng·h/mL
half-life [16]: 1.5 ± 0.3 h
Compound: Nc1c2c(nc3ccccc13)CCCC2O (stereo not drawn) [hydroxytacrine, 1-hydroxytacrine]

AUC(0-t) [16]: 142 ± 13 ng·h/mL
half-life [16]: 1.7 ± 0.2 h
Compound: Nc1c2c(nc3ccccc13)CCCC2 [tacrine]
contribution of CYP1A2 to metabolism [3]: > 90%

Second part, the compound before the results:

Compound: c1ccc2[nH]c(-c3cscn3)nc2c1 [thiabendazole]
enhancement in the plasma level of caffeine [1]: 1.6 fold

Compound: CC(C)C1=Cc2ccc3c(c2C(=O)C1=O)CCCC3(C)C [miltirone]
type of CYP1A2 inhibition ([4]; kinetic analysis): mixed-type
IC50 ([4]; read-out: IC50 for CYP1A2 in HLM, HLM): 1.73 µM

Compound: CS(=O)(=O)c1ccc(C2=C(c3ccccc3)C(=O)OC2)cc1 [Rofecoxib]
IC50 [12]: 4.2 µM
increase in plasma concentration of the CYP1A2 substrate tizanidine [13]: 13.6 fold

Compound: O=c1cc(-c2ccc(O)c(O)c2)oc2cc(O)cc(O)c12 [Luteolin]
type of CYP1A2 inhibition [14]: competitively

Compound: Cc1nc2c([nH]1)c(=O)n(C)c(=O)n2Cc1ccco1 [furafylline]
IC50 [17]: 20.8 µM
